Where “and” joins values, the source holds several entries; their conditions need not be identical. Equal values may be shown once. Inconclusive results and toxic doses are left out. Rule as the data show it: active = T/C of 150% or more; inactive = T/C below 125%.
Tested on: L1210 leukemia ip in BDF1 mice, survival T/C
Assay: NCI In Vivo Anticancer Drug Screen. Data for tumor model L1210 Leukemia (intraperitoneal) in B6D2F1 (BDF1) mice
Conditions: endpoint: mean survival time, higher = longer survival
Outline: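 Mice bearing the transplanted tumor received compound or vehicle. Survival of the treated group was divided by that of the vehicle-treated control group to give the ratio.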

[1] = dose: 50.0 mg/kg/injection, schedule: Q04DX003 (ip), vehicle: saline with Tween-80
[2] = dose: 100.0 mg/kg/injection, schedule: Q01DX001 (ip), vehicle: saline with Tween-80
[3] = dose: 100.0 mg/kg/injection, schedule: Q01DX009 (ip), vehicle: saline with Tween-80
[4] = dose: 100.0 mg/kg/injection, schedule: Q04DX003 (ip), vehicle: saline with Tween-80
[5] = dose: 200.0 mg/kg/injection, schedule: Q01DX001 (ip), vehicle: saline with Tween-80
[6] = dose: 200.0 mg/kg/injection, schedule: Q04DX003 (ip), vehicle: saline with Tween-80
[7] = dose: 400.0 mg/kg/injection, schedule: Q01DX001 (ip), vehicle: saline with Tween-80
[8] = dose: 400.0 mg/kg/injection, schedule: Q04DX003 (ip), vehicle: saline with Tween-80
[9] = dose: 100.0 mg/kg/injection, schedule: Q04DX003 (ip), vehicle: saline
[10] = dose: 200.0 mg/kg/injection, schedule: Q04DX003 (ip), vehicle: saline
[11] = dose: 400.0 mg/kg/injection, schedule: Q04DX003 (ip), vehicle: saline
[12] = dose: 100.0 mg/kg/injection, schedule: Q04DX002 (ip), vehicle: Klucel (hydroxypropylcellulose) (HPC)
[13] = dose: 200.0 mg/kg/injection, schedule: Q04DX002 (ip), vehicle: Klucel (hydroxypropylcellulose) (HPC)
[14] = dose: 400.0 mg/kg/injection, schedule: Q04DX002 (ip), vehicle: Klucel (hydroxypropylcellulose) (HPC)

Measured: T/C

NS(=O)(=O)c1ccc(NC(=S)NC(=O)c2cccc([N+](=O)[O-])c2)cc1
inactive: [1] 97 % of control | [2] 96 % of control | [3] 96 % of control and 101 % of control | dose: 100.0 mg/kg/injection, schedule: Q04DX002 (ip), vehicle: saline with Tween-80 90 % of control | [4] 97 % of control and 105 % of control | [5] 101 % of control | dose: 200.0 mg/kg/injection, schedule: Q01DX009 (ip), vehicle: saline with Tween-80 103 % of control and 89 % of control | dose: 200.0 mg/kg/injection, schedule: Q04DX002 (ip), vehicle: saline with Tween-80 104 % of control | [6] 94 % of control | [7] 86 % of control | dose: 400.0 mg/kg/injection, schedule: Q01DX009 (ip), vehicle: saline with Tween-80 96 % of control and 89 % of control | dose: 400.0 mg/kg/injection, schedule: Q04DX002 (ip), vehicle: saline with Tween-80 87 % of control | [8] 89 % of control

O=S(=O)(O)c1ccc(Br)cc1
inactive: dose: 100.0 mg/kg/injection, schedule: Q01DX009 (ip), vehicle: saline 116 % of control | [9] 98 % of control | dose: 200.0 mg/kg/injection, schedule: Q01DX009 (ip), vehicle: saline 108 % of control | [10] 103 % of control | dose: 400.0 mg/kg/injection, schedule: Q01DX009 (ip), vehicle: saline 108 % of control | [11] 104 % of control

CCCCCCCCCCCCOc1ccc(/C(=N\N=C(N)N)c2ccccc2)c(O)c1
inactive: dose: 15.0 mg/kg/injection, schedule: Q01DX Z (ip), vehicle: saline 91 % of control | dose: 30.0 mg/kg/injection, schedule: Q01DX Z (ip), vehicle: saline 89 % of control | dose: 120.0 mg/kg/injection, schedule: Q01DX Z (ip), vehicle: saline 92 % of control | dose: 120.0 mg/kg/injection, schedule: Q01DX Z (oral), vehicle: saline 102 % of control | dose: 240.0 mg/kg/injection, schedule: Q01DX Z (ip), vehicle: saline 103 % of control | dose: 240.0 mg/kg/injection, schedule: Q01DX Z (oral), vehicle: saline 102 % of control | dose: 480.0 mg/kg/injection, schedule: Q01DX Z (ip), vehicle: saline 110 % of control | dose: 480.0 mg/kg/injection, schedule: Q01DX Z (oral), vehicle: saline 95 % of control | dose: 960.0 mg/kg/injection, schedule: Q01DX Z (oral), vehicle: saline 101 % of control

CC1(c2ccc(N(CCCl)CCCl)cc2)NC(=O)NC1=O (stereo not drawn)
inactive: dose: 12.5 mg/kg/injection, schedule: Q04DX003 (ip), vehicle: saline 98 % of control | dose: 25.0 mg/kg/injection, schedule: Q04DX003 (ip), vehicle: saline 103 % of control | dose: 50.0 mg/kg/injection, schedule: Q04DX003 (ip), vehicle: saline 103 % of control | [9] 113 % of control | [10] 121 % of control

Cc1nc(N)[nH]c(=O)c1CCCNc1nc(Cl)nc(Cl)n1
inactive: [12] 91 % of control | [13] 91 % of control | [14] 88 % of control

CCC(C)(CC)OC(=O)c1ccc([N+](=O)[O-])cc1
inactive: [12] 113 % of control | [13] 106 % of control | [14] 97 % of control

CCN(CC)CCNCc1ccccc1
inactive: dose: 25.0 mg/kg/injection, schedule: Q01DX003 (ip), vehicle: saline 99 % of control | dose: 50.0 mg/kg/injection, schedule: Q01DX003 (ip), vehicle: saline 97 % of control | dose: 75.0 mg/kg/injection, schedule: Q01DX003 (ip), vehicle: saline 99 % of control | dose: 75.0 mg/kg/injection, schedule: Q04DX003 (ip), vehicle: saline 97 % of control

c1ccc(CNNC2=NCCN2)cc1
inactive: dose: 15.0 mg/kg/injection, schedule: Q01DX009 (ip), vehicle: saline 103 % of control | dose: 31.0 mg/kg/injection, schedule: Q01DX009 (ip), vehicle: saline 102 % of control | dose: 50.0 mg/kg/injection, schedule: Q01DX001 (ip), vehicle: saline 103 % of control | dose: 62.5 mg/kg/injection, schedule: Q01DX009 (ip), vehicle: saline 92 % of control | dose: 100.0 mg/kg/injection, schedule: Q01DX001 (ip), vehicle: saline 114 % of control

CCCCNc1nnnn1CCCC
inactive: dose: 100.0 mg/kg/injection, schedule: Q04DX003 (ip), vehicle: acetone 98 % of control | dose: 200.0 mg/kg/injection, schedule: Q04DX003 (ip), vehicle: acetone 96 % of control

O=C1c2cc([N+](=O)[O-])ccc2CCC1C(O)(C(F)(F)F)C(F)(F)F (stereo not drawn)
inactive: [2] 100 % of control | [5] 102 % of control | [7] 100 % of control

CC(=O)c1ccc2c(c1)CCN2
inactive: dose: 100.0 mg/kg/injection, schedule: Q01DX009 (ip), vehicle: Klucel (hydroxypropylcellulose) (HPC) 91 % of control | dose: 200.0 mg/kg/injection, schedule: Q01DX009 (ip), vehicle: Klucel (hydroxypropylcellulose) (HPC) 91 % of control

CC(C)C(Cl)C(=O)O (stereo not drawn)
inactive: dose: 75.0 mg/kg/injection, schedule: Q01DX001 (ip), vehicle: saline 96 % of control | dose: 150.0 mg/kg/injection, schedule: Q01DX001 (ip), vehicle: saline 104 % of control

CCOC(=O)C(CC)(CCC(C)C)C(=O)OCC
inactive: dose: 25.0 mg/kg/injection, schedule: Q01DX009 (ip), vehicle: saline with Tween-80 97 % of control | dose: 50.0 mg/kg/injection, schedule: Q01DX009 (ip), vehicle: saline with Tween-80 92 % of control | [3] 95 % of control | [9] 95 % of control | [10] 95 % of control | [11] 95 % of control

CC(=O)C(CCC#N)(CCC#N)C(=O)Nc1ccccc1
inactive: dose: 100.0 mg/kg/injection, schedule: Q04DX003 (ip), vehicle: Klucel (hydroxypropylcellulose) (HPC) 97 % of control | dose: 200.0 mg/kg/injection, schedule: Q04DX003 (ip), vehicle: Klucel (hydroxypropylcellulose) (HPC) 98 % of control | dose: 400.0 mg/kg/injection, schedule: Q04DX003 (ip), vehicle: Klucel (hydroxypropylcellulose) (HPC) 95 % of control

O=C(Nc1nccs1)c1ccc(C(=O)Nc2nccs2)cc1
inactive: dose: 15.0 mg/kg/injection, schedule: Q01DX Z (ip), vehicle: carboxymethylcellulose (CMC) 93 % of control | dose: 30.0 mg/kg/injection, schedule: Q01DX Z (ip), vehicle: carboxymethylcellulose (CMC) 100 % of control | dose: 60.0 mg/kg/injection, schedule: Q01DX Z (ip), vehicle: carboxymethylcellulose (CMC) 100 % of control | dose: 120.0 mg/kg/injection, schedule: Q01DX Z (ip), vehicle: carboxymethylcellulose (CMC) 100 % of control and 90 % of control | dose: 180.0 mg/kg/injection, schedule: Q01DX Z (ip), vehicle: carboxymethylcellulose (CMC) 96 % of control | dose: 270.0 mg/kg/injection, schedule: Q01DX Z (ip), vehicle: carboxymethylcellulose (CMC) 96 % of control | dose: 400.0 mg/kg/injection, schedule: Q01DX Z (ip), vehicle: carboxymethylcellulose (CMC) 95 % of control

COC1=NS(=O)(=O)CC(c2ccccc2)O1 (stereo not drawn)
inactive: dose: 75.0 mg/kg/injection, schedule: Q04DX003 (ip), vehicle: other 102 % of control | dose: 150.0 mg/kg/injection, schedule: Q04DX003 (ip), vehicle: other 86 % of control | dose: 300.0 mg/kg/injection, schedule: Q04DX003 (ip), vehicle: other 94 % of control

CCC/C=C(\C)CCCCCCCCC (tested in a mixture with another compound)
inactive: [4] 98 % of control | [6] 101 % of control | [8] 106 % of control

OCC(CO)=C1c2ccccc2-c2ccccc21
inactive: dose: 100.0 mg/kg/injection, schedule: Q## X003 (ip), vehicle: acetone 102 % of control | dose: 200.0 mg/kg/injection, schedule: Q## X003 (ip), vehicle: acetone 101 % of control | dose: 400.0 mg/kg/injection, schedule: Q## X003 (ip), vehicle: acetone 104 % of control

Cc1cccc[n+]1CCC(N)=O
inactive: dose: 6.25 mg/kg/injection, schedule: Q01DX009 (ip), vehicle: saline 97 % of control | dose: 12.5 mg/kg/injection, schedule: Q01DX009 (ip), vehicle: saline 97 % of control | dose: 25.0 mg/kg/injection, schedule: Q01DX009 (ip), vehicle: saline 108 % of control

Cc1cc(C)c(O)c(C(C)(C)C)c1
inactive: [1] 102 % of control | [4] 101 % of control | [6] 107 % of control
